One compound from patent publication US20060269482A1 (priority 2005, published 2006) can be followed below.

For experiment [1], the system named is Rb phosphorylation in MTLn3 tumors. In words: Rb phosphorylation in rat MTLn3 tumor xenografts after a single oral dose. Format: in vivo. Conditions: single oral dose 80 mg/kg, Western blot. On the procedure: The dose selected was 80 mg/kg, determined to be an efficacious dose in this animal model. Tumor growth inhibition in the MTLn3 xenograft model after 2 to 3 weeks of oral dosing at 80 mg/kg once weekly averaged 90% with 2/10 complete regressions. COMPOUND A was dosed on day 10 post implantation of cells, at which time the tumors were 100-200 mm^3 in size. In this pharmacokinetic/pharmacodynamic experiment, plasma and tumors were collected at 1, 2, 6, 24 and 72 hours post dosing of a single oral dose of COMPOUND A. Tumors were removed and immediately snap frozen in liquid nitrogen and stored at −80° C. until drug concentration analysis. […] Concentrations of COMPOUND A in plasma and tumors were determined in the same three animals per time point. […] Peripheral blood mononuclear cells (PBMCs) were isolated, stimulated ex vivo with mitogen and analyzed by Western blot as described below.
In a second pharmacodynamic study, plasma concentrations of COMPOUND A were similarly analyzed as described above, and Rb phosphorylation in both PBMCs and tumor xenografts treated with a single oral dose of COMPOUND A was examined.
PBMCs were collected by transferring the cells, including attached cells and those in suspension, into 50 ml tubes. […] For Western blotting, total Rb was detected using antibody from Pharmingen (BD Bioscience, San Diego, Calif.) at a dilution of 1:2000. […]

Experiment [2] relates to MTLn3 xenograft. The experiment is described as follows: Tumor growth inhibition in the MTLn3 xenograft model. Format: in vivo, rat. The settings on record: 2 to 3 weeks oral dosing at 80 mg/kg once weekly. On the procedure:
Female Fischer rats obtained from Charles River Laboratories were used when they were ˜13-15 weeks old and weighed ˜150 grams. All animals were examined prior to the initiation of studies to ensure that they were healthy and acclimated to the laboratory environment. Autoclaved water and irradiated food were provided ad libitum, and the animals were maintained in a 12 hour light and dark cycle. MTLn3 cells were grown in RPMI 1640 supplemented with 10% heat-inactivated Fetal Bovine Serum (HI-FBS; GIBCO/Invitrogen, Carlsbad, Calif.) and 2 mM L-glutamine (GIBCO/Invitrogen) and maintained at 37° C. at 5% CO2. The MTLn3 cells were obtained from Hoffmann-La Roche Inc., Nutley, N.J. Approximately 1×10^6 cells/0.2mls/rat in PBS (Phosphate Buffered Saline) Phenol-red free, Ca^+2 and Mg^+2-free were implanted subcutaneously in the right mammary fat pad. The dose selected was 80 mg/kg, determined to be an efficacious dose in this animal model. Tumor growth inhibition in the MTLn3 xenograft model after 2 to 3 weeks of oral dosing at 80 mg/kg once weekly averaged 90% with 2/10 complete regressions. […] Concentrations of COMPOUND A in plasma and tumors were determined in the same three animals per time point. […] Peripheral blood mononuclear cells (PBMCs) were isolated, stimulated ex vivo with mitogen and analyzed by Western blot as described below.

As to `COc1ccc(F)c(F)c1C(=O)c1cnc(NC2CCN(S(C)(=O)=O)CC2)nc1N` [COMPOUND A, [4-amino-2-(1-methanesulfonylpiperidin-4-ylamino)pyrimidin-5-yl]-(2,3-difluoro-6-methoxyphenyl)methanone], in experiment [1], the “Rb phosphorylation (serine 807/811) in tumor xenografts” value was “reduction in phosphorylation of Rb”. Also, in experiment [2], the Tumor growth inhibition came to 90% and the complete regressions is reported as 2/10.
